Measurements published in BindingDB's records for doi:10.1016/j.bmcl.2006.12.084 (Gsk, 2007).

Target: Free fatty acid receptor 1 (Homo sapiens, UniProt O14842)
Experiment: 96-Well Adherent Reporter Cell Assay
Conditions: 22 °C
Description: The reporter assay for the stable hGPR40-Gal4-Elk1/5xGal4-luc+-expressing CHO cells was first carried out in the serum-free medium in the presence of test ligand for 5h. The medium was then removed and replaced with 1:1 mixture of LucPlusTM (PerkinElmer Life Sciences) and Dulbecco phosphate buffered saline containing 1 mM CaCl2 and 1 mM MgCl2. Plates were incubated in the dark at room temperature for 10 min before luciferase activity was determined using a TopCountTM microplate scintillation counter (PerkinElmer Life Sciences) at a count time of 3 s/well.

Chain of Free fatty acid receptor 1 (O14842 whole entry): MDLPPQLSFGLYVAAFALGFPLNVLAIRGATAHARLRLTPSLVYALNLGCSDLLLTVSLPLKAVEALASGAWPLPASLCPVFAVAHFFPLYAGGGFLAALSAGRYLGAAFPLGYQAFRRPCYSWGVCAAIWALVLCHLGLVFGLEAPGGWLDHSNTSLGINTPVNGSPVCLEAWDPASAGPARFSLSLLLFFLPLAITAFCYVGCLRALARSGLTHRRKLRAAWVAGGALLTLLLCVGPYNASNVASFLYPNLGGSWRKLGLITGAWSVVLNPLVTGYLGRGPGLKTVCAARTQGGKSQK

Row | EC50 | SMILES
1 | > 31.6 µM | CC(C(=O)O)c1ccc(NCc2ccc(-c3ccccc3)cc2)cc1 (configuration not stated) [2-(4-{[(4-phenylphenyl)methyl]amino}phenyl)propanoic acid]
2 | > 31.6 µM | CN(C)Cc1ccc(CNc2ccc(CCC(=O)O)cc2)cc1 [3-{4-[({4-[(dimethylamino)methyl]phenyl}methyl)amino]phenyl}propanoic acid]
3 | 2 µM | O=C(O)CCc1ccc(NCc2ccc(C(F)(F)F)cc2)cc1 [3-[4-({[4-(trifluoromethyl)phenyl]methyl}amino)phenyl]propanoic acid]
4 | > 31.6 µM | O=C(O)CCc1ccc(NCc2cccnc2)cc1 [3-{4-[(pyridin-3-ylmethyl)amino]phenyl}propanoic acid]
5 | 2 µM | O=C(O)CCc1ccc(NCc2ccc(Cl)s2)cc1 [3-(4-{[(5-chlorothiophen-2-yl)methyl]amino}phenyl)propanoic acid]

Same assay, conditions: 25 °C

Row | EC50 | SMILES
6 | > 31.6 µM | O=C(O)CCc1ccc(NCc2ncc[nH]2)cc1 [3-{4-[(1H-imidazol-2-ylmethyl)amino]phenyl}propanoic acid]
7 | > 31.6 µM | O=C(O)CCc1ccc(NCc2ccc(C(=O)O)cc2)cc1 [4-({[4-(2-carboxyethyl)phenyl]amino}methyl)benzoic acid]
8 | > 31.6 µM | NC(=O)c1cccc(CNc2ccc(CCC(=O)O)cc2)c1 [3-(4-{[(3-carbamoylphenyl)methyl]amino}phenyl)propanoic acid]
9 | > 31.6 µM | N#Cc1ccc(CNc2ccc(CCC(=O)O)cc2)cc1 [3-(4-{[(4-cyanophenyl)methyl]amino}phenyl)propanoic acid]
10 | > 31.6 µM | O=C(O)CCc1ccc(NCc2ccc3c(c2)OCO3)cc1 [3-{4-[(2H-1,3-benzodioxol-5-ylmethyl)amino]phenyl}propanoic acid]
11 | > 31.6 µM | O=C(O)CCc1ccc(NCc2ccc(O)cc2)cc1 [3-(4-{[(4-hydroxyphenyl)methyl]amino}phenyl)propanoic acid]
12 | > 31.6 µM | CS(=O)(=O)Nc1cccc(CNc2ccc(CCC(=O)O)cc2)c1 [3-(4-{[(3-methanesulfonamidophenyl)methyl]amino}phenyl)propanoic acid]
